The structures appear in SMILES notation.

Here are results for one compound from publication PMC9458111, “New 1,2,3-Triazole-Coumarin-Glycoside Hybrids and Their 1,2,4-Triazolyl Thioglycoside Analogs Targeting Mitochondria Apoptotic Pathway: Synthesis, Anticancer Activity and Docking Simulation” (Molecules, 2022).

Test [1] deals with cytochrome c in MCF-7 cells. The test can be described thus: Cytochrome c release in MCF-7 cells (ELISA). The format is cell-based, human. Particulars: MCF-7, 19.6 µM (IC50), 24 h; untreated 0.176. How it is done: (§1) Referring to the cytotoxicity results, the 1,2,4-triazole-thioglycoside derivative 10 has a mitochondria-apoptotic effect on breast cancer cells through reduction of MTT by a mitochondrial enzyme. […] Along with that, such derivative elevated the release of cytochrome c into the cytosol in the treated MCF-7, in comparison with untreated one from 0.176 to 0.766 ng/ml due to disturbing mitochondrial outer membrane permeability (MOMP). In addition, the target 10 achieved better results than those afforded by from the standard 5-fluorouracil. Moreover, the level of caspase-7 was elevated in treated cells with the target 10 rather than that with 5-fluorouracil or the untreated cells as shown in Figure 4.
Cytochrome c specific antibodies have been precoated onto 96-well plates. Cytochrome c were analyzed by enzyme-linked immunosorbent assays (ELISAs) using commercial kits (ab119521; Abcam, Cambridge, MA, USA). The optimal dilutions were determined, and ELISAs were performed according to the manufacturer’s instructions.
(§2) Figure 4 Levels of Bax, Bcl-2, Bax/Bcl-2 ratio, cytochrome c and caspase-7 protein in MCF-7 cells after treatment with compound 10 and the standard drug for 24 h compared with the untreated one, 5-flu: 5-fluorouracil as a reference drug.

Test [2] has as its system caspase-7 in MCF-7 cells. The test can be described thus: Caspase-7 level in MCF-7 cells (ELISA). The following applies: MCF-7, 24 h, versus 5-fluorouracil or untreated cells. The format is cell-based, human. How it is done: as §1
The micro-ELISA plate was provided in this kit pre-coated with a CASP-7-specific antibody. A biotinylated CASP-7 antibody and Avidin–horseradish peroxidase (HRP) conjugate were added. Get rid of the excess components. The substrate solution was added. Wells that contain CASP-7, biotinylated detection antibody, and Avidin-HRP conjugate will appear blue in color. The color turns yellow following the addition of sulfuric acid solution. The optical density (OD) was measured at a wavelength of 450 nm ±2 nm. […]

The subject of test [3] is Bax protein in MCF-7 cells. The test can be described thus: Bax protein level in MCF-7 cells (ELISA). The format is cell-based, human. The following applies: MCF-7, 19.6 µM (IC50), 24 h. Here is the method: as §1
Bax protein levels picogram per ml (Pg/mL) were evaluated according to previously reported procedure. Monoclonal antibody, specific to Bax captured on the plate, was added. After incubation, Streptavidin conjugated to Horseradish peroxidase was added. The reaction was then terminated by adding acid and optical density of the color produced measured at 450 nm.
as §2

In test [4] the test system is MCF-7 cells. The test can be described thus: Cell cycle analysis, PI flow cytometry. The format is cell-based, human. Here is the method:
Cell cycle analysis and apoptosis detection were carried out by flow cytometry. MCF-7 cells were seeded at 1–5 × 10^4 and incubated at 37 °C, 5% CO2 overnight. After treatment with the tested compound 10, for 24 h, cell pellets were collected and centrifuged (300× g, 5 min). For cell cycle analysis, cell pellets were fixed with 70% ethanol on ice for 15 min and collected again [54]. The collected pellets were incubated with propidium iodide (PI) staining solution at room temperature for 1 h. Apoptosis detection was performed by Annexin V-FITC apoptosis detection kit (BioVision, Inc, Milpitas, CA, USA) following the manufacturer’s protocol. The samples were analyzed using FACS Calibur flow cytometer (BD Biosciences, San Jose, CA).
Figure 5 Cell cycle analysis and the effect of the target 10 on the percentage of V-FITC-positive annexin staining in MCF-7 cells in comparison with the control. TEXT PRINTED IN THE PICTURE: (C) cpd10: MCF7: 6.07%; MCF7: 18.11%; MCF7: 25.44% | (D) cpd10: MCF7: %DIP G1 41.96%; MCF7: %DIP G2/M 6.61%; MCF7: %DIP S 51.43%

For test [5], the system named is human colon cell line (HCT-116 cell lines). The test can be described thus: MTT cytotoxicity assay, HCT-116. The format is cell-based. Particulars: HCT-116, 48 h. Here is the method:
The synthesized compounds were studied for their cytotoxic activity against several human cancer cell lines, namely human osteosarcoma (HOS cell lines), human breast adenocarcinoma (MDA-MB-231 cell lines), human breast cancer (MCF-7 cell lines), human colorectal adenocarcinoma (Caco-2 cell lines) and human colon cell line (HCT-116 cell lines) using MTT assay at 100 µM, and the results were outlined as shown in Table 1.
Human osteosarcoma (HOS cell line), human breast adenocarcinoma (MDA-MB-231cell lines), human breast cancer (MCF-7 cell lines), human colorectal adenocarcinoma (Caco2 cell lines), human colon cell line (HCT-116 cell lines), normal human cell lines (BJ-1), and “a telomerase immortalized normal foreskin fibroblast cell line” were obtained from Karolinska Center, Department of Oncology and Pathology, Karolinska Institute and Hospital, Stockholm, Sweden.
Following culturing for 10 days, the cells were seeded at concentration of 10 × 10^3 cells per well in case of MCF-7 & MDA, 20 × 10^3 cells/well in a fresh complete growth medium in case of HCT-116, Caco2, & HOS and 40 × 10^3 cells/well in case of BJ-1 at 37 °C for 24 h in a water jacketed carbon dioxide incubator. After 48 h’ incubation, the medium was aspirated, and then 40 μl MTT salt (2.5 mg/mL) were added for a further 4 h; 200 μl 10% sodium dodecyl sulphate (SDS) in deionized water were added to each well and incubated overnight at 37 °C. The absorbance was measured at 595 nm with reference 690 nm. Doxorubicin was used as positive control, and 0.5% DMSO was used as negative control. IC50 values were calculated, using a probit analysis, and by utilizing the SPSS computer program (SPSS for Windows, statistical analysis software package/version 9/1989 SPSS Inc., Chicago, IL, USA).

For `CCn1c(COc2ccc3c(-c4ccccc4)cc(=O)oc3c2)nnc1SC1OCC(O)C(O)C1O` [Compound 10, 4-Phenyl-7-((4-ethyl-5-(1-(β-D-xylopyranosyl)thio)-4H-1,2,4-triazol-3-yl)meth-oxy)-2H-chromen-2-one], the “Cytochrome c released into the cytosol” value in test [1] was 0.766 ng/mL. Besides, in test [2], the “Level of caspase-7 (in words)” value was “elevated”. Further, the “Upregulation of pro-apoptotic Bax protein versus untreated cells” value in test [3] is reported as 4 folds. In addition, the “Increase in the cell percentage at the S phase versus untreated” value in test [4] (MCF-7, 19.6 µM (IC50), 24 h) amounted to 1.7 fold. Further, in test [4] (MCF-7, 19.6 µM (IC50), 24 h, untreated 29.63%), the “Cell percentage at the S phase” value stood at 51.43%. Moreover, in test [4] (MCF-7, Figure 5D), the “%DIP G1” value was 41.96% and the “%DIP G2/M” value is 6.61%. This compound yielded a cytotoxicity at 100 µM in test [5] of 27.2 ± 0.7%.
